Where two headings read alike, the source gives them in different places.
Legend:
Format in all cases: biochemical
human Yes1 enzyme = molecular target: T1, human Yes1 enzyme (Homo sapiens, UniProt P07947); experiment: Yes1 enzyme inhibitory activity (time-resolved fluorometry, biotinylated peptide phosphorylation); conditions: read-out: YES_IC50
T1 construct: made in house
In short: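 Inhibition was expressed against a compound-free control to give IC50, using TR-FRET read-out (Eu-cryptate anti-pTyr antibody, streptavidin-XL665).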

human Src enzyme = molecular target: T2, human Src enzyme (Homo sapiens, UniProt P12931); experiment: Src enzyme inhibitory activity (time-resolved fluorometry, biotinylated peptide phosphorylation); conditions: read-out: SRC_IC50
T2 construct: purchased Carna Biosciences, Inc. 08-173
T2 sequence (P12931 whole entry): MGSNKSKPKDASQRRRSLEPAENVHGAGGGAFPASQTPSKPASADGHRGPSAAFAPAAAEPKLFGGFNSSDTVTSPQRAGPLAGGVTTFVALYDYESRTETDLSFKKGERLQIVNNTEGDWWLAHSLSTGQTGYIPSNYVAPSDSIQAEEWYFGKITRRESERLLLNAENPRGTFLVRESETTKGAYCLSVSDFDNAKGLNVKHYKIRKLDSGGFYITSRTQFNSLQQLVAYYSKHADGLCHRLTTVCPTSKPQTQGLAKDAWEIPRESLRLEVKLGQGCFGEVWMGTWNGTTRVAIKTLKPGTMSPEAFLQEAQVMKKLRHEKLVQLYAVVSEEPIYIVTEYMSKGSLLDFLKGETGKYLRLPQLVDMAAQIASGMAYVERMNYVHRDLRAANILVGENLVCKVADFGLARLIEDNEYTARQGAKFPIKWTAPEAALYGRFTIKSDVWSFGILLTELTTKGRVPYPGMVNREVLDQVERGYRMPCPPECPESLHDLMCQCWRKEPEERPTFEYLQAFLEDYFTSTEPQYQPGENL
In short: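 Compounds were tested for blocking tyrosine phosphorylation of a biotinylated peptide substrate by recombinant human Src. Phosphorylated product was quantified by time-resolved fluorometry using europium cryptate and XL665 conjugates, and IC50 was calculated against the compound-free control.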

human Lck enzyme = molecular target: T3, human Lck enzyme (Homo sapiens, UniProt P06239); experiment: Lck enzyme inhibitory activity (time-resolved fluorometry, biotinylated peptide phosphorylation); conditions: read-out: LCK_IC50
T3 construct: purchased Carna Biosciences, Inc. 08-170
T3 sequence (P06239 whole entry): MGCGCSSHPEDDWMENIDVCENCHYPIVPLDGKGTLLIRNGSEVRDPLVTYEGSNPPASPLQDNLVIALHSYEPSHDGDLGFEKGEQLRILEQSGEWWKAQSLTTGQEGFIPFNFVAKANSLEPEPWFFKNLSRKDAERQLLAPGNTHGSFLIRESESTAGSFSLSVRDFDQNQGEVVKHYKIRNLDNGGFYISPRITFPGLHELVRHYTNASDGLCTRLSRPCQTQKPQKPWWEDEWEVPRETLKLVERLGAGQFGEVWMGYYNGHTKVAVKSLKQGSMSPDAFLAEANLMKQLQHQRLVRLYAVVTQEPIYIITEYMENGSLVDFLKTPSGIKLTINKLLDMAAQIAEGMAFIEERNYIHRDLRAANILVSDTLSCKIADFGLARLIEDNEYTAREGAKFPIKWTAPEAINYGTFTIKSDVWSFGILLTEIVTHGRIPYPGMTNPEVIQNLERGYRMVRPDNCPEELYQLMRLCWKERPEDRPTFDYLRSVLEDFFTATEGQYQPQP
In short: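 Readout pairs a europium cryptate-labelled anti-phosphotyrosine antibody with XL665-streptavidin, measured by time-resolved fluorescence. IC50 derived from percent inhibition against untreated controls.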

[1] = biotinylated peptide phosphorylation

T1 sequence (P07947 whole entry): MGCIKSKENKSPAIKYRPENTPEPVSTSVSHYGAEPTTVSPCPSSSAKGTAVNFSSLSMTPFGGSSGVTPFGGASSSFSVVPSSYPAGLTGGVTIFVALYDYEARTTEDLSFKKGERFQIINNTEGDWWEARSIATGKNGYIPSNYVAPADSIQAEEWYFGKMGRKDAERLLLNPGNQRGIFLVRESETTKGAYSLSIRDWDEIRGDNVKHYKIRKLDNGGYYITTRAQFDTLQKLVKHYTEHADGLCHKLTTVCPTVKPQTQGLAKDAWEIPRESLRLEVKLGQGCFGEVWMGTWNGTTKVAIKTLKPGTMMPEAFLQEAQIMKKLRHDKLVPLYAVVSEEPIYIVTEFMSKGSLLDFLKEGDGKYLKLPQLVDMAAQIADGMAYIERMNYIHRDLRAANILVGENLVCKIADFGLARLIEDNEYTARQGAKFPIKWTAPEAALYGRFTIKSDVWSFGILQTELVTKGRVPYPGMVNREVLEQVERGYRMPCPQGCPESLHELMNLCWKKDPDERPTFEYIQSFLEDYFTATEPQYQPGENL

Cc1cc(Oc2ccccc2F)cc(F)c1-n1ncc(C(=O)c2cc3cc(OCC(F)F)c(NC4COC4)cc3[nH]2)c1N [Example 4-23-019, [5-amino-1-[2-fluoro-4-(2-fluorophenoxy)-6-methylphenyl]pyrazol-4-yl]-[5-(2,2-difluoroethoxy)-6-(oxetan-3-ylamino)-1H-indol-2-yl]methanone]
IC50 (human Yes1 enzyme; [1]): 1.8 nM
IC50 (human Src enzyme; [1]): 28 nM
IC50 (human Lck enzyme; [1]): 6.4 nM

Cc1cc(Oc2ccccc2F)cc(F)c1-n1ncc(C(=O)c2cc3cc(NS(C)(=O)=O)c(F)cc3[nH]2)c1N [Example 4-2-099, N-[2-[5-amino-1-[2-fluoro-4-(2-fluorophenoxy)-6-methylphenyl]pyrazole-4-carbonyl]-6-fluoro-1H-indol-5-yl]methanesulfonamide]
IC50 (human Yes1 enzyme; [1]): 0.61 nM
IC50 (human Src enzyme; [1]): 15 nM
IC50 (human Lck enzyme; [1]): 2.8 nM

Cc1cc(Oc2c(F)cccc2F)ncc1-n1ncc(C(=O)c2cc3cc(OC(F)F)c(C4CCNCC4)cc3[nH]2)c1N [Example 4-4-001, (5-amino-1-(6-(2,6-difluorophenoxy)-4-methylpyridin-3-yl)-1H-pyrazol-4-yl)(5-(difluoromethoxy)-6-(piperidin-4-yl)-1H-indol-2-yl)methanone]
IC50 (human Yes1 enzyme; [1]): 6.3 nM
IC50 (human Src enzyme; [1]): 21 nM
IC50 (human Lck enzyme; [1]): 8.2 nM

Cc1cc(Oc2ccccc2F)ccc1-n1ncc(C(=O)c2cc3cc(F)c(NS(=O)(=O)c4cccc(F)n4)cc3[nH]2)c1N [Example 5-1-517, N-[2-[5-amino-1-[4-(2-fluorophenaxy)-2-methylphenyl]pyrazole-4-carbonyl]-5-fluoro-1H-indol-5-yl]-6-fluoropyridine-2-sulfonamide]
IC50 (human Yes1 enzyme; [1]): 2.1 nM
IC50 (human Src enzyme; [1]): 300 nM
IC50 (human Lck enzyme; [1]): 34 nM

Cc1cc(Oc2c(F)cccc2F)ncc1-n1ncc(C(=O)c2cc3cc(OC4CCN(C(C)C)CC4)c(F)cc3[nH]2)c1N [Example 5-1-204, [5-amino-1-[6-(2,6-difluorophenoxy)-4-methylpyridin-3-yl]pyrazol-4-yl]-[6-fluoro-5-(1-propan-2-ylpiperidin-4-yl)oxy-1H-indol-2-yl] methanone]
IC50 (human Yes1 enzyme): 0.5 nM
IC50 (human Src enzyme): 10 nM
IC50 (human Lck enzyme): 6.7 nM

Cc1cc(Oc2ccccc2F)ccc1-n1ncc(C(=O)c2cc3cc(OCC(F)F)c(N4C(=O)NC5(CCNCC5)C4=O)cc3[nH]2)c1N [Example 5-1-271, 3-[2-[5-amino-1-[4-(2-fluorophenoxy)-2-methylphenyl]pyrazole-4-carbonyl]-5-(2,2-difluoroethoxy)-1H-indol-6-yl]-1,3,8-triazaspiro [4.5]decane-2,4-dione]
IC50 (human Yes1 enzyme): 0.51 nM
IC50 (human Src enzyme): 7.2 nM
IC50 (human Lck enzyme): 3.2 nM

Cc1cc(-n2ncc(C(=O)c3cc4cc(C)c(C5CCN(C(C)C)CC5)cc4[nH]3)c2N)ccc1Oc1ccccc1F [Example 5-1-012, [5-amino-1-[4-(2-fluorophenoxy)-3-methylphenyl]pyrazol-4-yl]-[5-methyl-6-(1-propan-2-ylpiperidin-4-yl)-1H-indd-2-yl] methanone]
IC50 (human Yes1 enzyme): 2.5 nM
IC50 (human Src enzyme): 310 nM
IC50 (human Lck enzyme): 23 nM

Cc1cc(Oc2ccccc2F)ncc1-n1ncc(C(=O)c2cc3cc(F)c(NS(=O)(=O)CC(=O)NC(C)C)cc3[nH]2)c1N [Example 5-1-056, 2-[[2-[5-amino-1-[6-(2-fluorophenoxy)-4-methylpyridin-3-yl]pyrazole-4-carbonyl]-5-fluoro-1H-indol-6-yl]sulfamoyl]-N-propan-2-ylacetamide]
IC50 (human Yes1 enzyme): 1.7 nM
IC50 (human Src enzyme): 76 nM
IC50 (human Lck enzyme): 24 nM

Cc1cc(Oc2ccccc2F)cc(F)c1-n1ncc(C(=O)c2cc3cc(OC(F)F)c(C4CCN(S(C)(=O)=O)CC4)cc3[nH]2)c1N [Example 4-17-006, [5-amino-1-[2-fluoro-4-(2-fluorophenoxy)-6-methylphenyl]pyrazol-4-yl]-[5-(difluoromethoxy)-6-(1-methylsulfonylpiperidin-4-yl)-1H-indol-2-yl]methanone]
IC50 (human Yes1 enzyme; [1]): 3.4 nM
IC50 (human Src enzyme; [1]): 25 nM
IC50 (human Lck enzyme; [1]): 13 nM

Cc1cc(Oc2ccccc2F)ccc1-n1ncc(C(=O)c2cc3cc(F)c(N4C(=O)NC5(CCOCC5)C4=O)cc3[nH]2)c1N [Example 5-1-437, 3-[2-[5-amino-1-[4-(2-fluorophenoxy)-2-methylphenyl]pyrazole-4-carbonyl]-5-fluoro-1H-indol-6-yl]-8-oxa-1,3-diazaspiro[4.5]decane-2,4-dione]
IC50 (human Yes1 enzyme; [1]): 0.79 nM
IC50 (human Src enzyme; [1]): 40 nM
IC50 (human Lck enzyme; [1]): 7.8 nM

Cc1cc(Oc2ccccc2F)ccc1-n1ncc(C(=O)c2cc3cc(OCC(F)F)c(N4CCCC4=O)cc3[nH]2)c1N [Example 4-21-002, 1-[2-[5-amino-1-[4-(2-fluorophenoxy)-2-methylphenyl]pyrazole-4-carbonyl]-5-(2,2-difluoroethoxy)-1H-indol-6-yl]pyrrolidin-2-one]
IC50 (human Yes1 enzyme; [1]): 0.89 nM
IC50 (human Src enzyme; [1]): 5.4 nM
IC50 (human Lck enzyme; [1]): 2.8 nM

Cc1cc2cc(C(=O)c3cnn(-c4c(C)cc(Oc5ccccc5F)cc4F)c3N)[nH]c2cc1NS(C)(=O)=O [Example 4-2-055, N-[2-[5-amino-1-[2-fluoro-4-(2-fluorophenoxy)-6-methylphenyl]pyrazole-4-carbonyl]-5-methyl-1H-indol-6-yl]methanesulfonamide]
IC50 (human Yes1 enzyme; [1]): 3 nM
IC50 (human Src enzyme; [1]): 65 nM
IC50 (human Lck enzyme; [1]): 26 nM

Cc1cc(-n2ncc(C(=O)c3cc4cc(OC5CCN(C(C)C)CC5)c(N5CCOCC5)cc4[nH]3)c2N)ccc1Oc1ccccc1F [Example 5-1-174, (5-amino-1-(4-(2-fluorophenoxy)-3-methylphenyl)-1H-pyrazol-4-yl)(5-((1-isopropylpiperidin-4-yl)oxy)-6-morpholino-1H-indol-2-yl)methanone]
IC50 (human Yes1 enzyme): 0.56 nM
IC50 (human Src enzyme): 46 nM
IC50 (human Lck enzyme): 4.5 nM

Cc1cc(Oc2ccccc2Cl)ncc1-n1ncc(C(=O)c2cc3cc(NS(C)(=O)=O)c(F)cc3[nH]2)c1N [Example 5-1-050, N-[2-[5-amino-1-[6-(2-chlorophenoxy)-4-methylpyridin-3-yl]pyrazole-4-carbonyl]-6-fluoro-1H-indol-5-yl]methanesulfonamide]
IC50 (human Yes1 enzyme): 0.77 nM
IC50 (human Src enzyme): 23 nM
IC50 (human Lck enzyme): 1.8 nM

Cc1cc(Oc2cccc(F)c2)ncc1-n1ncc(C(=O)c2cc3cc(F)c(NS(=O)(=O)C4CC4)cc3[nH]2)c1N [Example 4-2-048, N-[2-[5-amino-1-[6-(3-fluorophenoxy)-4-methylpyridin-3-yl]pyrazole-4-carbonyl]-5-fluoro-1H-indol-6-yl]cyclopropanesulfonamide]
IC50 (human Yes1 enzyme; [1]): 12 nM
IC50 (human Src enzyme; [1]): 290 nM
IC50 (human Lck enzyme; [1]): 79 nM

Cc1cc(Oc2ccccc2F)ccc1-n1ncc(C(=O)c2cc3cc(OCC(F)F)c(NS(=O)(=O)c4cc(F)cc(F)c4)cc3[nH]2)c1N [Example 5-1-415, N-[2-[5-amino-1-[4-(2-fluorophenoxy)-2-methylphenyl]pyrazole-4-carbonyl]-5-(2,2-difluoroethoxy)-1H-indol-6-yl]-3,5-difluorobenzenesulfonamide]
IC50 (human Yes1 enzyme; [1]): 5.9 nM
IC50 (human Src enzyme; [1]): 280 nM
IC50 (human Lck enzyme; [1]): 110 nM

Cc1cc(-n2ncc(C(=O)c3cc4cc(OC5CCN(C6CC6)CC5)c(Br)cc4[nH]3)c2N)ccc1Oc1ccccc1F [Example 5-1-219, [5-amino-1-[4-(2-fluorophenoxy)-3-methylphenyl]pyrazol-4-yl]-[6-bromo-5-(1-cyclopropylpiperidin-4-yl)oxy-1H-indol-2-yl] methanone]
IC50 (human Yes1 enzyme): 1.3 nM
IC50 (human Src enzyme): 460 nM
IC50 (human Lck enzyme): 83 nM

From patent publication US10479780B2, “Aminopyrazole derivatives” (Chugai Seiyaku Kabushiki Kaisha, priority 2015, dated 2019)
